{"source": "paper PMC10205807", "about": "“Cross-species comparison in nonclinical pharmacokinetics of lenvatinib by a simple HPLC with ultraviolet detection” (Scientific Reports, 2023)", "key": {"[1]": {"assay": "Stability of lenvatinib in mice plasma and processed samples", "type": "physicochemical", "conditions": "for Frozen stability, mean percentage bias from the theoretical values: below − 15 °C, 4 weeks", "protocol": "(§1) Calibration samples and QC samples for the reproducibility assessment were prepared by spiking 0.05 mL of the working standard solutions to blank plasma (0.05 mL), and QC samples for the stability assessment were prepared by fortifying 0.05 mL of the solution to 1.5 mL of bank plasma. Lenvatinib concentrations in plasma were 0.005, 0.01, 0.03, 0.1, 0.3, 1, 3, 10, 30, and 100 μg/mL for the calibration samples, and were 0.005, 0.01, 1, and 100 μg/mL for the QC samples for reproducibility assessment. Lenvatinib concentrations of QC samples for the stability assessment were 0.01, 1, and 80 μg/mL.\n(§2) The developed method for the determination of lenvatinib concentrations in plasma was validated and the following validation parameters including linearity, selectivity, intra- and inter-batch reproducibility, extraction recovery, and stability were evaluated in accordance with the bioanalytical guidelines by United States Food and Drug Administration (US-FDA)[7]. The peak height ratios of lenvatinib to the IS of calibration samples were plotted against the corresponding nominal concentrations of lenvatinib. The calibration curve was prepared by the least square method with 1/(concentration)^2 as the weighting factor. In the linearity assessment, accuracy of each calibration sample was determined to ensure that relative error (RE) at each concentration was within ± 15% (within ± 20% at the LLOQ). […] Intra-batch accuracy and precision were evaluated using QC samples at the four concentrations, LLOQ, low QC (LQC), mid QC (MQC), and ULOQ. […] Inter-batch accuracy and precision were evaluated by testing a single sample at each concentration across five batches (n = 5 in total). […] Extraction recoveries of lenvatinib and the IS from plasma samples of the four species were evaluated. The recoveries of lenvatinib at the low, mid, and high QC levels (triplicates per concentration), and that of the IS (0.5 μg/mL) were determined. […] Stability of lenvatinib in plasma and processed samples was assessed at the low and high QC levels. Lenvatinib concentrations in samples after storage were compared to the theoretical concentrations and RE values were calculated. […] Freeze–thaw stability in plasma was evaluated up to three freeze–thaw cycles and frozen stability in plasma was evaluated at − 15 °C or below for 4 weeks (mice, rats, and dogs) or 6 weeks (monkeys). Stability in processed samples was assessed at 4 °C for 7 days. Stability of lenvatinib in the standard solutions was evaluated for the stock (100 μg/mL) and the working solution (5 ng/mL). The stability of the IS solution (0.5 μg/mL) was also assessed. […]"}, "[2]": {"assay": "Stability of lenvatinib in dog plasma and processed samples", "type": "physicochemical, dogs", "conditions": "dog plasma; for Freeze/thaw stability, mean percentage bias from the theoretical values: 3 cycles", "protocol": "as §1\nas §2, with “The peak height ratios of lenvatinib to the IS of calibration samples were plotted against the corresponding nominal concentrations of lenvatinib. The calibration curve was prepared by the least square method with 1/(concentration)^2 as the weighting factor.” left out, “(monkeys).” for “(monkeys). Stability in processed samples was assessed at 4 °C for 7 days. Stability of lenvatinib in the standard solutions was evaluated for the stock (100 μg/mL) and the working solution (5 ng/mL). The stability of the IS solution (0.5 μg/mL) was also assessed.”"}}}
{"compound": "COc1cc2nccc(Oc3ccc(NC(=O)NC4CC4)c(Cl)c3)c2cc1C(N)=O", "note": "[lenvatinib, Lenvatinib]", "values": [{"measurement": "Freeze/thaw stability, mean percentage bias from the theoretical values", "setting": "[1]; mice plasma, 3 cycles, HQC 80 μg/mL", "result": 0.8, "unit": "%"}, {"measurement": "Frozen stability, mean percentage bias from the theoretical values", "setting": "[1]; mice plasma, LQC 0.01 μg/mL", "result": 0.0, "unit": "%"}, {"measurement": "Frozen stability, mean percentage bias from the theoretical values", "setting": "[1]; mice plasma, MQC 1 μg/mL", "result": 1.0, "unit": "%"}, {"measurement": "Processed sample stability, mean percentage bias from the theoretical values", "setting": "[1]; processed mice plasma samples, 4 °C, 7 days, HQC 80 μg/mL", "result": 0.3, "unit": "%"}, {"measurement": "Freeze/thaw stability, mean percentage bias from the theoretical values", "setting": "[2]; HQC 80 μg/mL", "result": 0.6, "unit": "%"}, {"measurement": "Freeze/thaw stability, mean percentage bias from the theoretical values", "setting": "[2]; MQC 1 μg/mL", "result": 1.5, "unit": "%"}, {"measurement": "Frozen stability, mean percentage bias from the theoretical values", "setting": "[2]; below − 15 °C, 4 weeks, HQC 80 μg/mL", "result": 3.1, "unit": "%"}]}
